According to US11357728B2, “Liposome having inner water phase containing sulfobutyl ether cyclodextrin salt” (CSPC ZHONGQI PHARMACEUTICAL TECHNOLOGY (SHIJIAZHUANG) CO., …, priority 2009, dated 2022):

Key:
[1] = system: Prostate RM-1 Tumor Model; test: Anti-tumor efficacies of topotecan liposomes on prostate RM-1 tumor model; type: in vivo, female C57 mice; details: single i.v. 10 mg/kg; for Tumor volume (mm^3): n = 10, x ± sd
Procedure: RM-1 […] cancer cells were collected, and diluted with 1640 medium. After dilution, the tumor cell number was modulated to 2.0×10^6 cells/ml. 0.2 mL of the tumor cell suspension containing about 4×10^5 tumor cells was inoculated into forward limb oxter subcutaneous tissue of female C57 mice under aseptic condition. Twelve days after inoculation, mice were randomized by tumor volume into groups and administered with a single i.v. injection at a dose of 10 mg/kg.
The mice were bred normally after administration. Tumor diameters were measured to dynamically evaluate anti-tumor efficacies of different formulations. Tumor volume (TV) was calculated with the following formula: TV=½×a×b^2, in which a and b represent length and width, respectively.
The tumor volumes were calculated by using the measurement results. The experiment data were analyzed using SPSS 11.5 statistics software.

KM mice = test: Toxicity of liposomal formulations in KM mice
[2] = dosage level 40.6 mg/kg topotecan, two female KM mice per group, 14 days

CC[C@@]1(O)C(=O)OCc2c1cc1n(c2=O)Cc2cc3c(CN(C)C)c(O)ccc3nc2-1 [Free topotecan, topotecan]
suppression of tumor growth in comparison with 5% glucose for injection as control ([1]; RM-1 tumor model): did not significantly suppress the growth of tumor
Tumor volume (mm^3) ([1]; day 0 after administration): 223.0 ± 65.7 mm^3
Tumor volume (mm^3) ([1]; day 2 after administration): 484.0 ± 154.7 mm^3
Tumor volume (mm^3) ([1]; day 4 after administration): 606.0 ± 183.1 mm^3
Tumor volume (mm^3) ([1]; day 6 after administration): 1060.7 ± 393.0 mm^3
Tumor volume (mm^3) ([1]; day 8 after administration): 1301.8 ± 563.7 mm^3
Tumor volume (mm^3) ([1]; day 9 after administration): 1628.5 ± 835.4 mm^3
Tumor volume (mm^3) ([1]; day 13 after administration): 3592.9 ± 1523.5 mm^3
Tumor volume (mm^3) ([1]; day 15 after administration): 6639.3 ± 2388.2 mm^3
Number of Animals with >15% weight loss (KM mice; dosage level 32.5 mg/kg topotecan, two female KM mice per group, 14 days): 1
Number of Animals with >15% weight loss (KM mice; [2]): 2
number of dead animals (KM mice; [2]): 1
order of toxicity (KM mice; topotecan formulations, KM mice): free topotecan<liposome having SBE-CD/TA as inner water phase<liposome having sucrose octasulfate as inner water phase
